Test results reported in US20250042880A1 (UNIVERSITY OF KENTUCKY RESEARCH FOUNDATION, priority 2021, published 2025).

Tests used:
LS174T xenografts = LS174T xenografts in SCID mice; type: in vivo, mouse
Description: In vivo evaluation of anti-cancer activity in LS174T xenografts—The mouse studies were conducted with the approval of the University of Kentucky Institutional Animal Care and Use Committee (2020-3531). All methods were carried out in compliance with the relevant guidelines and regulations according to protocols. The LS174T cells in exponential growth phase were trypsinized and resuspended in 50% Matrigel (Corning, Glendale, Arizona). Cells (1.2×10^6) were subcutaneously injected on the lower flanks of severe combined immunodeficient mice. The tumor volumes were calculated based on the formula Length×width^2/2. When tumors reached an average volume of 100 mm^3, the mice were divided into control and treatment groups (3 male and 3 female mice/group, two tumors on each mouse). After tumors were established, BAY-876 was given to the mice by gavage feeding to the BAY-876 group at the dose of 3 mg/kg/day. DBI-1 was daily intraperitoneally (i.p.) administered to the DBI-1 group at dose of 40 mg/kg mouse body weight. Mice in the combination treatment group were administered both oral BAY-876 at the dose of 3 mg/kg/day and i.p. DBI-1 at dose of 40 mg/kg mouse body weight. Tumors and mouse weights were measured every three days and the experiment was stopped at day 12. Tumors were isolated and fixed in 10% neutral buffered formalin. Tumor sections were analyzed with H&E and Ki-67 staining at Markey Cancer Center's Biospecimen Procurement and Translational Pathology Shared Resource Facility (BPTP SRF).

[1] = system: A2780 ovarian cancer cells; conditions: cited from earlier work
OVCAR-3 cells = conditions: growth inhibition; cited from earlier work
GLUT1 = molecular target: T1, GLUT1 (Homo sapiens, UniProt P11166); conditions: cited from earlier work
T1 sequence (P11166 1-492): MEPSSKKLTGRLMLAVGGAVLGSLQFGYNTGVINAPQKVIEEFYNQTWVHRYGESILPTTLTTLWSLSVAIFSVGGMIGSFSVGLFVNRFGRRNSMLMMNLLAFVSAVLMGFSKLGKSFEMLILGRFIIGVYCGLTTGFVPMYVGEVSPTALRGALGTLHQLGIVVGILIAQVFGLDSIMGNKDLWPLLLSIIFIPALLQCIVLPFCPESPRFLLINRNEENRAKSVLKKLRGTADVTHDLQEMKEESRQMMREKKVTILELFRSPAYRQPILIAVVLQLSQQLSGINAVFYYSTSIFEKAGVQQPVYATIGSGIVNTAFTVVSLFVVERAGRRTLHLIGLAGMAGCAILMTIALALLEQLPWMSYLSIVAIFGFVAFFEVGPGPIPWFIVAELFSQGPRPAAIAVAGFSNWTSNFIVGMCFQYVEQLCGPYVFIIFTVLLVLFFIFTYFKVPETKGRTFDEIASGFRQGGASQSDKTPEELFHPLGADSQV

[2] = system: BT549, MDA-MB-436 and HCC70; conditions: 3 μM; cited from earlier work
DLD-1 CRC cells = conditions: cited from earlier work
LS174T cells = assay: Seahorse oxygen consumption rate assay; type: cell-based; conditions: rotenone/antimycin A replaced with compound
Description: Seahorse oxygen consumption rate assay-Seahorse assays were conducted in accordance with a published protocol (50). Mitochondrial bioenergetic measurements were performed using the Seahorse XFe96 Extracellular Flow Analyzer (Agilent Technologies, Santa Clara, CA, USA) to measure the oxygen consumption rate (OCR) in different respiratory states. 2.5×10^4 LS174T cells in 80 μL medium were seeded in XF96 Cell Culture microplate and cultured overnight. Then cell culture media were replaced with Seahorse XF modified media before cells were treated. […] To test whether compounds were ETC complex I or III inhibitors, rotenone and antimycin A were replaced with DMSO, or compounds in DMSO solution.
The Seahorse assays were performed in compliance with a pre-announced procedure (41). Oxygen consumption was measured using the Seahorse XFe96 Extracellular Flow Analyzer (Agilent Technologies, Santa Clara, CA, USA). 2.5×10^4 LS174T cells were seeded in XF96 Cell Culture microplate in 80 μL culture medium and incubated overnight. On the following day, the cell culture media were exchanged with Seahorse XF modified media. 1.0 μmol/L oligomycin, 1.0 μmol/L FCCP, and a mixture of 1.0 μmol/L rotenone and 1.0 μmol/L antimycin A were sequentially added during the measurements. […]

mitochondrial complex I = assay: Mitochondrial ETC complex activity using PMP-permeabilized cells; type: cell-based
Description: Mitochondrial ETC complex activity measurements using PMP-Measurements of mitochondrial ETC complex activity were performed using the Agilent Seahorse Assay with XF PMP (Agilent, Santa Clara, CA) according to the manufacturer's instructions. Mitochondrial assay solution (MAS) was prepared with 220 mM mannitol, 70 mM sucrose, 10 mM KH2PO4, 5 mM MgCl2, 2 mM HEPES, 1 mM EGTA, and 0.2% (w/v) fatty acid free BSA. Cells were gen Ly washed with MAS and cell media was replaced with MAS supplemented with 4 mM adenosine diphosphate (ADP), 10 mM pyruvate, and 1 nM PMP. After calibration, the test was prompμLy carried out by measuring baseline with two cycles of 0.5 min mixing, 0.5 min waiting, and 2 min measuring. Following the baseline measurements, DMSO, test compounds or 2 μM rotenone, 10 mM succinate, 2 μM antimycin A, and a combination of 10 mM ascorbate and 100 μM TMPD were sequentially injected. The experiment data were then normalized to cell counts using Biotek Cytation 1 (BioTek Instruments, Winooski, VT, USA).
Mitochondrial ETC complex activity was measured using the Agilent Seahorse Assay with XF permeabilizer (PMP; Agilent) in compliance with the manufacturer's protocol. […] Following calibration, the baseline OCR was measured with cycles of 0.5-minute mixing, 0.5-minute waiting, and 2-minute measuring to perform the test. […]

| Compound | tumor growth (LS174T xenografts; BAY-876 3 mg/kg/day oral, DBI-1 40 mg/kg/day i.p., two weeks) | toxicity based on mice body weight growth rate (LS174T xenografts; BAY-876 3 mg/kg/day, DBI-1 40 mg/kg/day) | sensitivity of A2780 ovarian cancer cells [1] | IC50 (OVCAR-3 cells) [nM] | potency for the GLUT1 transporter (GLUT1) | selectivity factor for GLUT1 in comparison with GLUT2, GLUT3 and GLUT4 (GLUT1) | growth of TNBC cell lines BT549, MDA-MB-436 and HCC70 [2] | IC50 (DLD-1 CRC cells) [nM] | oxygen consumption rate (OCR) (LS174T cells) | ETC complex inhibited (conclusion of Seahorse assays) (mitochondrial complex I; ETC complex-specific inhibitors and PMP-permeabilized cells) | pyruvate/NADH-linked respiration (mitochondrial complex I; PMP-permeabilized CRC cells) |
| --- | --- | --- | --- | --- | --- | --- | --- | --- | --- | --- | --- |
| Cc1c(NC(=O)c2cc(C(N)=O)nc3cc(F)ccc23)c(C(F)(F)F)nn1Cc1ccc(C#N)cc1 [BAY-876, N^4-[1-(4-cyanobenzyl)-5-methyl-3-(trifluoromethyl)-1H-pyrazol-4-yl]-7-fluoroquinoline-2,4-dicarboxamide] | inhibited tumor growth | No significant toxicity | resistant | 60 | single-digit, nanomolar | > 100 | did not inhibit the growth | 2 |  |  |  |
| O=c1c(-c2ccc(Cl)c(Cl)c2)coc2cc(OCCN3CCN(CCO)CC3)ccc12 [DBI-6, 3-(3,4-dichlorophenyl)-7-(2-(4-(2-hydroxyethyl)piperazin-1-yl)ethoxy)-4H-chromen-4-one] |  |  |  |  |  |  |  |  | suppressed OCR in a similar manner to rotenone/antimycin A | complex I inhibitor | reduced pyruvate/NADH-linked respiration |
